Results as given in the METLIN SMRT retention time set (Domingo-Almenara et al. 2019).

Assay: gradient 5% acetonitrile 3 min, to 50% in 2 min, to 85% in 15 min, held 3 min, 100 µL/min
Conditions: column: Zorbax Extend-C18 2.1 x 50 mm; eluents: water / acetonitrile, 0.1% formic acid
Outline: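 Using water and acetonitrile that each contained 0.1% formic acid, mixtures of ~100 pure standards were separated at 100 μL/min on a Zorbax Extend-C18 column (2.1 × 50 mm, 1.8 μm). The HPLC fed a quadrupole time-of-flight mass spectrometer working in positive and negative ionization mode, with dead and dwell volumes of 40 μL and 900 μL. Data were acquired over 3 months. Retention time was read from computationally picked adduct peaks after manual inspection of each.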

| RP-LC retention time [s] | Structure (SMILES) |
| --- | --- |
| 912 | CCS(=O)(=O)c1ccc(-c2cccc(NC(=O)c3ccc4ccccc4n3)c2)nn1 |
| 696 | COc1ccc2cccc(CCNC(C)=O)c2c1 |
| 993 | CC1(C(=O)NC2CCCCCCC2)CN(S(C)(=O)=O)CC(=O)N1Cc1ccc(Cl)cc1 (stereo not given) |
| 895 | O=C(CN1C(=O)NC(c2ccc(Cl)cc2)C2=C1COC2=O)Nc1ccc(C(F)(F)F)cc1 (stereo not given) |
| 552 | O=C(NCCN1CCCC1)c1ccc2nc(-c3ccccc3)cn2c1 |
| 792 | Cc1nn(CC(=O)Nc2ccccc2C(F)(F)F)c(C)c1[N+](=O)[O-] |
| 585 | CCc1cc2c(N3CCCC(C(=O)NCCCN4CCN(C)CC4)C3)ncnc2s1 (stereo not given) |
| 1000 | CCOC(=O)c1cn2nc(SCc3ccccc3)nc2nc1C |
| 917 | CCc1nc(-c2csc(S(=O)(=O)N3CCCC(C(=O)Nc4ccc(OC)cc4)C3)c2)no1 (stereo not given) |
| 699 | CCc1ccccc1NC(=O)Cn1c(C(C)C)nc2c(c1=O)CCN(Cc1ccccc1)C2 |
| 746 | CCCNC(=O)C1CCCN(C(=O)c2cc(C)cc(C)c2)C1 (stereo not given) |
| 593 | Cc1ccsc1C(=O)N1C[C@@H]2CCCN3CCC[C@@H]([C@H]23)[C@H]1CCCC(=O)N1CCOCC1 |
| 1130 | CCOc1ccc(-n2c(=O)c3sccc3n(Cc3nc(-c4ccc(C)c(C)c4)no3)c2=O)cc1 |
| 702 | COc1ccc(NC(=O)Nc2c(-c3cccc(C)c3)nc3ccccn23)cc1Cl |
| 1000 | Cc1ccccc1-c1noc(-c2nnn3c2COC(c2ccc(F)cc2)C3)n1 (stereo not given) |
| 694 | O=C(Nc1cccc(Cl)c1)N1CCN(c2cnn3c(C4CC4)nnc3c2)CC1 |
| 730 | Cc1cc2[nH]c(C(=O)Nc3cc(F)ccc3F)c(CN3CCOCC3)c2s1 |
| 808 | Cc1cc(C(F)F)n2nc(C(=O)N3CCCC3c3ccc(F)cc3)nc2n1 (stereo not given) |
| 929 | CCOc1ccc(C(=O)Nc2cnn(-c3ncncc3N3CCC(C)CC3)c2)cc1 |
| 812 | Cc1ccc(N2CCC(NC(=O)c3ccc(Br)o3)C2=O)cc1 (stereo not given) |
| 881 | O=C(NCCc1csc(-c2ccccc2)n1)C1CCN(S(=O)(=O)c2ccccc2)CC1 |
| 1060 | O=C1COc2cc(Cl)ccc2N1Cc1nc(-c2ccccc2)no1 |

| RP-LC retention time [s] | Structure (SMILES) |
| --- | --- |
| 872 | O=C(NCc1ccco1)C1CCCN(c2ncccc2-c2noc(C3CCC3)n2)C1 (stereo not given) |
| 610 | Cc1ccc2nc(C)cc(C(=O)NC3CCCC3)c2c1 |
| 769 | CC(=O)Nc1cccc(-c2nc(-c3ccc4oc(-c5ccccc5)nc4c3)no2)c1 |
| 996 | CCN(CC)CCOc1ccc(/C(=C(\Cl)c2ccccc2)c2ccccc2)cc1 |
| 654 | CN(C)C(=O)c1ccc2c(c1)N(CC(=O)Nc1ccc(F)cc1)C(=O)CO2 |
| 648 | Cc1cccc2nnc(N3CCN(C(=O)c4ccc(F)cc4)CC3)n12 |
| 929 | Cc1cc(C(=O)N2c3ccccc3CC2c2nc(C3CC3)no2)nn1C (stereo not given) |
| 664 | CC(C)(CO)NC(=O)Cc1ccc(NS(=O)(=O)c2ccccc2Br)cc1 |
| 925 | COc1ccc(Cn2nnc(C(=O)NCc3ccco3)c2-n2cccc2)cc1 |
| 746 | Cc1ccc(C2NC(=O)N(CC(=O)Nc3ccc4c(c3)OCO4)C3=C2C(=O)OC3)cc1 (stereo not given) |
| 1100 | CCc1ccc(N2CC(c3noc(-c4ccccc4F)n3)CC2=O)cc1 (stereo not given) |
| 858 | COc1cccc(NC(=O)Cn2nc3c(Oc4cccc(Cl)c4)nccn3c2=O)c1 |
| 1250 | CCCCn1c(=O)c2ccccc2n(Cc2nc(-c3cccc(Cl)c3)no2)c1=O |
| 1040 | COc1ccccc1CCC(=O)N1CCc2cc(-c3ccno3)ccc21 |
| 642 | Cn1nccc1C(=O)N1CCC(c2noc(-c3ccncc3)n2)C1 (stereo not given) |
| 583 | CCn1cnc(S(=O)(=O)N2CCCC(C(=O)NCCN3CCCCCC3)C2)c1 (stereo not given) |
| 657 | COc1nn(C)cc1C(=O)NCC(=O)N1CCc2ccccc2C1 |
| 597 | Cc1noc(-c2ccc(OC3CN(C(=O)c4cccc5[nH]ccc45)C3)cc2)n1 |
| 908 | Cc1ccc(C)c(N2CCN(c3ccnc(SCC(=O)NCc4ccc(F)cc4)n3)CC2)c1 |
| 716 | O=C(c1ccc(-c2cncnc2)nc1)N1CCN(c2ccccc2)CC1 |
| 1010 | CCOc1cccc(-c2noc(Cn3cnc4c(oc5ccccc54)c3=O)n2)c1 |
| 968 | CCOc1cccc(C2c3[nH]c4ccccc4c3CCN2C(=O)c2cccnc2)c1 (stereo not given) |

| RP-LC retention time [s] | Structure (SMILES) |
| --- | --- |
| 663 | CC(=O)OCCN1c2ccccc2Sc2cnccc21 |
| 864 | O=C(CCCn1c(=O)c2cccn2c2ccc(Br)cc21)NCc1ccco1 |
| 728 | COc1ccc(C2CC(=O)Nc3c(C(=O)O)cn(-c4cccc(F)c4)c32)cc1OC (stereo not given) |
| 1240 | CCn1cc(-c2nc(C(=O)Nc3cc(C)ccc3F)cs2)c2cccnc21 |
| 683 | COC(=O)c1cccc(NS(=O)(=O)c2cc3n(c2)CCN(C)C3=O)c1 |
| 970 | COc1ccc(-n2c(=O)n(C)c(=O)c3cc(C(=O)Nc4cc(F)cc(F)c4)cnc32)cc1 |
| 578 | O=C(NCc1cccnc1)N(c1ccccc1)c1ccccc1 |
| 789 | Cc1ccccc1CNC(=O)c1ccc2c(c1)Sc1ncccc1C(=O)N2C |
| 1170 | COc1ccc(-n2c(=O)c(C(=O)NC3CCCC3)c(O)c3cccnc32)cc1 |
| 866 | CCOc1ccc(NC(=O)Cn2c(=O)n(-c3ccc(F)cc3)c(=O)c3c2cc(C)n3C)cc1 |
| 552 | O=C(Cn1ncccc1=O)N1CCN(c2ccc(-c3ccco3)nn2)CC1 |
| 575 | CSC[C@H]1O[C@@H](n2cnc3c(N)ncnc32)[C@@H](O)[C@H]1O |
| 891 | O=C(CSc1nnc2c3cc(-c4ccc(F)cc4)nn3ccn12)Nc1ccc(F)cc1F |
| 560 | CN1CCN(c2nnc(SCC(=O)Nc3cccc(C(F)(F)F)c3)s2)CC1 |
| 840 | COC(=O)c1ccccc1NC(=O)c1cc(N2C(=O)CCS2(=O)=O)ccc1Cl |
| 724 | COc1ccccc1NC(=O)Cc1nnc(-c2ccc3ncccc3c2)o1 |
| 730 | O=C(Cn1nc2c3cc(Cl)ccc3ncn2c1=O)Nc1cccc(Cl)c1 |
| 607 | Cc1cccc(NC(=O)CN2C(=O)C3CCCCN3c3ccc(S(=O)(=O)N(C)C)cc32)c1 (stereo not given) |
| 931 | Cc1ccc(-n2nnnc2CNC(=O)COc2ccc(Cl)cc2Cl)cc1C |
| 576 | O=C(NCCN1CCN(c2ccc(Cl)cc2)CC1)C1CC1 |

| Structure (SMILES) | RP-LC retention time [s] |
| --- | --- |
| CCn1ccc(C(=O)N2CCC3(CC2)NCc2ccccc2-n2ccnc23)n1 | 579 |
